Experimental findings from patent publication US10745416B2, “Macrocyclic compounds for treating disease” (Turning Point Therapeutics, Inc., priority 2017, dated 2020) are described below.

Common to all, as to assay: Cell proliferation assay (CellTiter-Glo, 72 hours)
For orientation: In ATP-based viability assays light output follows the ATP content of the culture.

One assay concerns the target T1, BaF3 KIF5B-RET_V804M (Homo sapiens, UniProt P07949, V804M, cells depend on it).
T1 construct: fused on or other part: P33176 (Kinesin-1 heavy chain)
The assay is classed as cell-based. The following applies: anti-cell proliferation, read-out: BaF3 KIF5B-RET_V804M IC50. The source says: (§1) The KIF5B-RET gene was synthesized at GenScript and cloned into pCDH-CMV-MCS-EF1-Puro plasmid (System Biosciences, Inc). KIF5B-RET point mutation V804M was generated at GenScript by PCR and confirmed by sequencing. Ba/F3-KIF5B-RET wild type and mutant were generated by transducing Ba/F3 cells with lentivirus containing KIF5B-RET wide type or mutant. Stable cell lines were selected by puromycin treatment, followed by IL-3 withdrawal. Briefly, 5×10^6 Ba/F3 cells were transduced with lentivirus supernatant in the presence of 8 μg/mL protamine sulfate. The transduced cells were subsequently selected with 1 µg/mL puromycin in the presence of IL3-containing medium RPMI1640, plus 10% FBS. After 10-12 days of selection, the surviving cells were further selected for IL3 independent growth.
(§2) Two thousand cells per well were seeded in 384 well white plate for 24 hrs, and then treated with compounds for 72 hours (37° C., 5% CO2). Cell proliferation was measured using CellTiter-Glo luciferase-based ATP detection assay (Promega) following the manufactures's protocol. IC50 determinations were performed using GraphPad Prism software (GraphPad, Inc., San Diego, Calif.).

The next assay addresses T2, BaF3 KIF5B-RET_G810R (Homo sapiens, UniProt P07949, G810R, cells depend on it).
T2 construct: fused on or other part: P33176 (Kinesin-1 heavy chain)
The assay is classed as cell-based. The following applies: anti-cell proliferation, read-out: BaF3 KIF5B-RET_G810R IC50.
From the text: [The source words this procedure for another variant and reports this variant under the same test.] as §1, §2

Another assay concerns the target T3, BaF3 KIF5B-RET (Homo sapiens, UniProt P07949).
T3 construct: fused on or other part: P33176 (Kinesin-1 heavy chain)
The assay is classed as cell-based. The following applies: anti-cell proliferation, read-out: BaF3 KIF5B-RET IC50.
From the text: as §1, §2

The next assay has as its target T4, BaF3 EML4-ALK (Homo sapiens, UniProt Q9UM73).
T4 construct: The EML4-ALK gene (variant 1) was synthesized at GenScript and cloned into pCDH-CMV-MCS-EF1-Puro plasmid (System Biosciences, Inc); fused on or other part: Q9HC35 (Echinoderm microtubule-associated protein-like 4)
The assay is classed as cell-based. The following applies: anti-cell proliferation. As for the experimental part: The EML4-ALK gene (variant 1) was synthesized at GenScript and cloned into pCDH-CMV-MCS-EF1-Puro plasmid (System Biosciences, Inc). Ba/F3-EML4-ALK wild type were generated by transducing Ba/F3 cells with lentivirus containing EML4-ALK wide type. Stable cell lines were selected by puromycin treatment, followed by IL-3 withdrawal. Briefly, 5×10^6 Ba/F3 cells were transduced with lentivirus supernatant in the presence of 8 μg/mL protamine sulfate. The transduced cells were subsequently selected with 1 μg/mL puromycin in the presence of IL3-containing medium RPMI1640, plus 10% FBS. After 10-12 days of selection, the surviving cells were further selected for IL3 independent growth.
as §2

A further assay deals with KM12 cell (TPM3-TRKA). The class given is cell-based, human. The following applies: Homo sapiens, KM12, anti-cell proliferation. The method, then:
(§3) Human medulla thyroid carcinoma cell line TT (containing RET […] mutation) and acute myelogenous cell line KG-1 were purchased from ATCC. Human colon cancer cell line KMI2 (containing TPM3-TRKA) was obtained from NCI.
as §2

The subject of the next assay is KG-1. The class given is cell-based, human. The following applies: Homo sapiens, KG-1, anti-cell proliferation. The method, then:
as §3, §2

Bounds are passed on as bounds.

T1 sequence (P07949 whole entry V804M, the tested form may be a part): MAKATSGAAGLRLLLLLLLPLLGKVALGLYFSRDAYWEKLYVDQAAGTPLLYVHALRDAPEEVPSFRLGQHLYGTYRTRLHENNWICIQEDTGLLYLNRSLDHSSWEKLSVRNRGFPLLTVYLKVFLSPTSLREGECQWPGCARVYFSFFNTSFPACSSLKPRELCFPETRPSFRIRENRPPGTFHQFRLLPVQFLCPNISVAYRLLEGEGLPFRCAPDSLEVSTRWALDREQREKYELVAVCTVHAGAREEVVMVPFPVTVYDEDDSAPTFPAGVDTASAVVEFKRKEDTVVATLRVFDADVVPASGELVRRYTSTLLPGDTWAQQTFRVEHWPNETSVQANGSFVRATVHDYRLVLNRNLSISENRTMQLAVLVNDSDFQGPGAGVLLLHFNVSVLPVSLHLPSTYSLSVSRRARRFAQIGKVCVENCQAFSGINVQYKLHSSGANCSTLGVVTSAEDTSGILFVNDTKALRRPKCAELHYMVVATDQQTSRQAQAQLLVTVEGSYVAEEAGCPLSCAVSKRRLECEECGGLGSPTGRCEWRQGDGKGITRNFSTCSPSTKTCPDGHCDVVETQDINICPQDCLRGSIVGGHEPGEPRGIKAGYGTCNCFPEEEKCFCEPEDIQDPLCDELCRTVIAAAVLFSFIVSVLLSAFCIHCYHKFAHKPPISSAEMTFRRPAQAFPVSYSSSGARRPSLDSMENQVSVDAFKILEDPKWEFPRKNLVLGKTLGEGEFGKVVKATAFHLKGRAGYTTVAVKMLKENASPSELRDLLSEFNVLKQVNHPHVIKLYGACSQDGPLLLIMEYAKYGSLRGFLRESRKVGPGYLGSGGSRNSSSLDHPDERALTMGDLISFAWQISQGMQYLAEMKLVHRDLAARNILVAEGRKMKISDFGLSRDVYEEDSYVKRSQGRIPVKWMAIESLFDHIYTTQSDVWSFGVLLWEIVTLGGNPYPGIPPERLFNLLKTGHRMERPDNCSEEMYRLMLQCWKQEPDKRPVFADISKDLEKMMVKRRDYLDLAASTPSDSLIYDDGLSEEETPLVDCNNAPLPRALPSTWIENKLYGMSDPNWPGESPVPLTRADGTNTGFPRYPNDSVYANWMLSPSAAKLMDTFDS
T2 sequence (P07949 whole entry G810R, the tested form may be a part): as the sequence (P07949 whole entry V804M, the tested form may be a part) above, with M804V, G810R counted along it
T3 sequence (P07949 whole entry, change not shown, the tested form may be a part): as the sequence (P07949 whole entry V804M, the tested form may be a part) above, with M804V counted along it
T4 sequence (Q9UM73 whole entry, change not shown, the tested form may be a part): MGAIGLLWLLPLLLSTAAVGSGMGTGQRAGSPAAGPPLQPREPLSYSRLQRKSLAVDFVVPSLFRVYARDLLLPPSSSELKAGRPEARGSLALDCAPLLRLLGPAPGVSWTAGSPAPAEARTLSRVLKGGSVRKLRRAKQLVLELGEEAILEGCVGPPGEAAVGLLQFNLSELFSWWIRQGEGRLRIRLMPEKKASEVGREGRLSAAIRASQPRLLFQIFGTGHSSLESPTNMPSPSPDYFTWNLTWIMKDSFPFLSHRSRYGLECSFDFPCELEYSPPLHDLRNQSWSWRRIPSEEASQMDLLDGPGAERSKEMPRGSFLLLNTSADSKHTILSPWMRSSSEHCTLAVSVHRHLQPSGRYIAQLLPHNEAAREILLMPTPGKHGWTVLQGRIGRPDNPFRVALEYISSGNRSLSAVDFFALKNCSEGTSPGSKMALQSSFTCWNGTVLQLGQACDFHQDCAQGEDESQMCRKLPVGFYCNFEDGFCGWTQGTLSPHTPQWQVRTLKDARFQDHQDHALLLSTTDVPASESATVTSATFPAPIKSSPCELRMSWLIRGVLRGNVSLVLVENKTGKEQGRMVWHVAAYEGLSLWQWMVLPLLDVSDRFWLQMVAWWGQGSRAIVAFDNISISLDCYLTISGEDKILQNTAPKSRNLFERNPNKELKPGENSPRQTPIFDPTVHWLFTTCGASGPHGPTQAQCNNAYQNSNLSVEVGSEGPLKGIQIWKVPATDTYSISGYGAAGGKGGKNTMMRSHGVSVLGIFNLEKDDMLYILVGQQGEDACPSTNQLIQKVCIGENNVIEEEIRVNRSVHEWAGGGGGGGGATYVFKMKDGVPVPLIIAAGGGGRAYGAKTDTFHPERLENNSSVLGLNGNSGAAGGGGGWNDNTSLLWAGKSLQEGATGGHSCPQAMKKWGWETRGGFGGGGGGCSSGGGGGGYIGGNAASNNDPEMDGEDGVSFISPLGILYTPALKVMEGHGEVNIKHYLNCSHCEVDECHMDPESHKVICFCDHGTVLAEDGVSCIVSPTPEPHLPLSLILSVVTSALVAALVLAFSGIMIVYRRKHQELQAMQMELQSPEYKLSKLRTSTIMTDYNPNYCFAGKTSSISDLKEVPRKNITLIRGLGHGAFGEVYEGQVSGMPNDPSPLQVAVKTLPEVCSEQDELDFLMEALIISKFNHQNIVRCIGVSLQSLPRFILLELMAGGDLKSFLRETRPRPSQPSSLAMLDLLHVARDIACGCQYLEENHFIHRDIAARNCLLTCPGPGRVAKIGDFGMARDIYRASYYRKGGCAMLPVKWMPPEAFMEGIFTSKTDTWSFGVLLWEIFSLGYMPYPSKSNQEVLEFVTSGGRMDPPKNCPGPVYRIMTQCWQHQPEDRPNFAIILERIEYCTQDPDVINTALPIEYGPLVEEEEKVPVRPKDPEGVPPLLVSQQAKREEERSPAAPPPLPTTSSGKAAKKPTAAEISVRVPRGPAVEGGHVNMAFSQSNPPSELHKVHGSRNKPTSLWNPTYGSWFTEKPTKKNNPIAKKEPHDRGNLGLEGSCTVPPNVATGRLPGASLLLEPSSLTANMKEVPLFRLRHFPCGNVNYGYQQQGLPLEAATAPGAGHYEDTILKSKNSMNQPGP

With `C[C@@H]1COc2ncc(F)cc2CN2c3nc4c(cnn4cc3O[C@H]3CCC[C@H]32)C(=O)N1` [Compound 6, (3aR,12R,20aS)-7-fluoro-12-methyl-2,3,3a,12,13,20a-hexahydro-1H,5H-17-19-(metheno)cyclopenta[5,6][1,4] oxazino[3,4-i]pyrazolo[4,3-f]pyrido[3,2-l][1,4,8,10]oxatriazacyclotridecin-14(11H)-one], the GI50 on BaF3 KIF5B-RET_V804M was 0.573 µM; on BaF3 KIF5B-RET_G810R, 0.003 µM; at BaF3 KIF5B-RET, 0.0002 µM; on BaF3 EML4-ALK, 0.145 µM. Besides, the IC50 was 0.0002 µM in the assay with KM12 cell (TPM3-TRKA) and 0.001 µM in the assay on KG-1.

`C[C@@H]1COc2c(F)cc(F)cc2CN2c3nc4c(cnn4cc3O[C@H]3CCC[C@H]32)C(=O)N1` [Compound 7, (3aR,12R,20aS)-7,9-difluoro-12-methyl-2,3,3a,12,13,20a-hexahydro-1H,5H-17-19-(metheno)cyclopenta[5,6][1,4] oxazino[3,4-i]pyrazolo[4,3-f][1,4,8,10]benzoxatriazacyclotridecin-14(11H)-one]: the GI50 is 1.84 µM on BaF3 KIF5B-RET_V804M, 0.0992 µM on BaF3 KIF5B-RET_G810R, 0.0002 µM at BaF3 KIF5B-RET and 0.675 µM on BaF3 EML4-ALK. Further, the IC50 in the assay on KM12 cell (TPM3-TRKA) was 0.037 µM; in the assay with KG-1, 0.344 µM.

`C[C@H]1CNC(=O)c2cnn3cc4c(nc23)N(Cc2cc(F)cnc2O1)[C@@H]1CCCC[C@@H]1O4` [Compound 12, (4aR,12S,21aS)-8-fluoro-12-methyl-1,2,3,4,4a,13,14,21a-octahydro-6H-18, 20-(metheno)pyrazolo[4′,3′:6,7]pyrido [3′,2′:12,13][1,4,8, 10]oxatriazacyclotridecino[9,10-c][1,4]benzoxazin-15(12H)-one]: the GI50 at BaF3 KIF5B-RET_V804M stood at 4.62 µM; at BaF3 KIF5B-RET_G810R it was 1.01 µM; on BaF3 KIF5B-RET, 0.101 µM; on BaF3 EML4-ALK, 2.71 µM. Moreover, the IC50 with KM12 cell (TPM3-TRKA) came out at 0.0138 µM; in the assay with KG-1, 0.16 µM.

Regarding `C[C@@H]1COc2ncc(F)cc2CN2c3nc4c(cnn4cc3O[C@H]3CCCC[C@H]32)C(=O)N1` [Compound 13, (4aR,13S,21aS)-8-fluoro-13-methyl-1,2,3,4,4a,13,14,21a-octahydro-6H-18, 20-(metheno)pyrazolo[4′,3′:6,7]pyrido [3′,2′:12,13][1,4,8, 10]oxatriazacyclotridecino[9,10-c][1,4]benzoxazin-15(12H)-one], the GI50 was more than 10 µM at BaF3 KIF5B-RET_V804M, 1.12 µM at BaF3 KIF5B-RET_G810R, 0.342 µM on BaF3 KIF5B-RET and 5 µM on BaF3 EML4-ALK. Further, the results for the IC50 in the assay on KM12 cell (TPM3-TRKA) and in the assay on KG-1 were 0.0284 µM and 0.452 µM, respectively.

As to `C[C@H]1CCNC(=O)c2cnn3cc4c(nc23)N(Cc2cc(F)cnc2O1)[C@@H]1CCC[C@@H]1O4` [Compound 15, (3aR,11S,21aS)-7-fluoro-11-methyl-2,3,3a,12,13,14,21a-octahydro-1H,5H, 15H-18,20-(metheno)cyclopenta[5,6] [1,4]oxazino[4,3-e]pyrazolo[3,4-h]pyrido [2,3-b][1,5,7,11]oxatriazacyclotetradecin-15-one], the GI50 came out at 1.24 µM on BaF3 KIF5B-RET_V804M, 0.0087 µM on BaF3 KIF5B-RET_G810R, 0.0011 µM at BaF3 KIF5B-RET and 0.364 µM at BaF3 EML4-ALK. Also, the IC50 with KM12 cell (TPM3-TRKA) came to 0.0051 µM; with KG-1, 0.0052 µM.

With `C[C@@H]1CCOc2ncc(F)cc2CN2c3nc4c(cnn4cc3O[C@H]3CCC[C@H]32)C(=O)N1` [Compound 16, (3aR,13R,21aS)-7-fluoro-13-methyl-2,3,3a,11,12,13,14,21a-octahydro-1H,5H, 15H-18,20-(metheno)cyclopenta[5,6] [1,4]oxazino[4,3-e]pyrazolo[3,4-h]pyrido [2,3-b][1,5,7,11]oxatriazacyclotetradecin-15-one], the GI50 on BaF3 KIF5B-RET_V804M came to 5 µM; on BaF3 KIF5B-RET_G810R it was 0.0412 µM; on BaF3 KIF5B-RET, 0.0166 µM; at BaF3 EML4-ALK, 0.34 µM. The IC50 stood at 0.0455 µM with KM12 cell (TPM3-TRKA) and 0.0474 µM with KG-1.

As to `C[C@H]1CNC(=O)c2cnn3cc4c(nc23)N(Cc2cc(F)cnc2OC1)[C@@H]1CCC[C@@H]1O4` [Compound 17, (3aR,12S,21aS)-7-fluoro-12-methyl-2,3,3a,11,12,13,14,21a-octahydro-1H,5H, 15H-18,20-(metheno)cyclopenta[5,6] [1,4]oxazino[4,3-e]pyrazolo[3,4-h]pyrido [2,3-b][1,5,7,11]oxatriazacyclotetradecin-15-one], the GI50 on BaF3 KIF5B-RET_V804M was found to be 2.73 µM; on BaF3 KIF5B-RET_G810R, 0.0107 µM; at BaF3 KIF5B-RET, 0.0018 µM; at BaF3 EML4-ALK it was 0.616 µM. In addition, the IC50 in the assay on KM12 cell (TPM3-TRKA) came out at 0.004 µM; with KG-1 it was 0.005 µM.

As to `O=C1NC2(CC2)COc2ncc(F)cc2CN2c3nc4c1cnn4cc3O[C@H]1CCC[C@H]12` [Compound 18, (3a′R,20a′S)-7′-fluoro-1′H,2′H,3′H,3a′H, 5′H,11′H,13′H,14′H,20a′H-spiro[cyclopropane-1,12′-[10,20]dioxa[4,9,13,16,17,18][hexaaza [17,19](metheno)cyclopenta[5,6][1,4]oxazino[3,4-i]pyrazolo[4,3-f]pyrido [3,2-l][1,4,8,10]oxatriazacyclotridecin]-14′-one], the GI50 at BaF3 KIF5B-RET_V804M was found to be 1.53 µM; on BaF3 KIF5B-RET_G810R, 0.0244 µM; at BaF3 KIF5B-RET, 0.0071 µM; at BaF3 EML4-ALK, 0.0772 µM. For the same molecule, the IC50 with KM12 cell (TPM3-TRKA) was determined as 0.0113 µM; in the assay with KG-1, 0.0169 µM.

In the case of `O=C1NCCCOc2ncc(F)cc2CN2c3nc4c1cnn4cc3O[C@H]1CCC[C@H]12` [Compound 19, (3aR,21aS)-7-fluoro-2,3,3a,11,12,13,14,21a-octahydro-1H,5H,15H-18,20-(metheno)cyclopenta[5,6][1,4]oxazino[4,3-e]pyrazolo[3,4-h]pyrido[2,3-b][1,5,7,11]oxatriazacyclotetradecin-15-one], the GI50 at BaF3 KIF5B-RET_V804M was determined as 3.07 µM; at BaF3 KIF5B-RET_G810R, 0.078 µM; on BaF3 KIF5B-RET it was 0.0052 µM; at BaF3 EML4-ALK, 0.895 µM. Further, the IC50 in the assay on KM12 cell (TPM3-TRKA) amounted to 0.0078 µM; in the assay on KG-1, 0.0731 µM.

For the molecule `O=C1NCC2(CC2)COc2ncc(F)cc2CN2c3nc4c1cnn4cc3O[C@H]1CCC[C@H]12` [Compound 20, (3a′R,21a′S)-7′-fluoro-1′H,2′H,3′H,3a′H, 5′H,11′H,13′H,14′H,15′H,21a′H-spiro[cyclopropane-1,12′-[10,21]dioxa[4,9,14,17,18,19][hexaaza [18,20](metheno)cyclopenta[5,6][1,4]oxazino[4,3-e]pyrazolo[3,4-h]pyrido [3,2-b][1,5,7,11]oxatriazacyclotetradecin]-15′-one], the GI50 at BaF3 KIF5B-RET_V804M worked out at 1.86 µM; on BaF3 KIF5B-RET_G810R, 0.0078 µM; at BaF3 KIF5B-RET, 0.0011 µM; at BaF3 EML4-ALK it was 1.4 µM. In addition, the IC50 with KM12 cell (TPM3-TRKA) stood at 0.0005 µM; with KG-1 it was 0.0024 µM.

On to `CC1(C)COc2ncc(F)cc2CN2c3nc4c(cnn4cc3O[C@H]3CCC[C@H]32)C(=O)N1` [Compound 21, (3aR,20aS)-7-fluoro-12,12-dimethyl-2,3,3a,12,13,20a-hexahydro-1H,5H-17,19-(metheno)cyclopenta[5,6] [1,4]oxazino[3,4-i]pyrazolo[4,3-f]pyrido [3,2-l][1,4,8,10]oxatriazacyclotridecin-14(11H)-one], for which the GI50 on BaF3 KIF5B-RET_V804M is 3.46 µM; at BaF3 KIF5B-RET_G810R it was 0.082 µM; at BaF3 KIF5B-RET it was less than 0.0002 µM; at BaF3 EML4-ALK it was 0.462 µM. In addition, the results for the concentration for half-maximal inhibition (IC50) in the assay on KM12 cell (TPM3-TRKA) and with KG-1 were 0.0138 µM and 0.0869 µM, respectively.

As for `O=C1NC2(CCC2)COc2ncc(F)cc2CN2c3nc4c1cnn4cc3O[C@H]1CCC[C@H]12` [Compound 22, (3a′R,20a′S)-7′-fluoro-1′H,2′H,3′H,3a′H, 5′H,11′H,13′H,14′H,20a′H-spiro[cyclobutane-1,12′-[10,20]dioxa[4,9,13,16,17,18][hexaaza [17,19](metheno)cyclopenta[5,6][1,4]oxazino[3,4-i]pyrazolo[4,3-f]pyrido [3,2-l][1,4,8,10]oxatriazacyclotridecin]-14′-one], the GI50 on BaF3 KIF5B-RET_V804M is 1.76 µM; at BaF3 KIF5B-RET_G810R, 0.128 µM; on BaF3 KIF5B-RET, less than 0.0002 µM; on BaF3 EML4-ALK it was 0.157 µM. Also, the IC50 in the assay on KM12 cell (TPM3-TRKA) turned out to be 0.0493 µM; in the assay on KG-1 it was 0.156 µM.

What is called IC50 is the concentration that gives 50% inhibition. Low readings indicate higher potency, high ones lower potency.
